Legend:
[1] = Hypoglycemic potency (United States Pharmacopeia method); type: in vivo; conditions: relative to unmodified insulin; USP Vol. 18 method
Protocol: Hypoglycemic potency of the modified insulin was measured as described in "The United States Pharmacopeia", Mark Publishing Co., Vol. 18, pp. 883-884 (1964). Bioactivity was 62% as compared to unmodified insulin.

[2] = Aggregation tendency assessed by turbidity of the solution (absorbance difference at 400 nm); type: physicochemical; conditions: 0 to 0.1 A non-aggregated, above 0.3 aggregated
Protocol: The tendency of modified insulin to aggregate was assessed by measuring the turbidity of the solution. This method is based on the work of Leach and Scheraga (S. J. Leach and H. A. Scheraga (1964) J. Amer. Chem. Soc. 82, 4790-4792) who stated that absorbancy observed in insulin solutions between 350 and 600 nm is due to light scattering of aggregated particles. Briefly, 10 mg of sample was dissolved in 2 ml of isotonic phosphate buffered saline (PBS) and the solution was passed 50 times through a 3 cc plastic syringe (B-D Plastipak, Luer Lok Type) equipped with a 26G 3/8" hypodermic needle. After deaeration under vacuo for 60 min. 1 ml of this solution was diluted with 1 ml of PBS, and the turbidity was measured on a Hewlett Packard spectrophotometer type HP 8590, utilizing as a blank a non-aggregated sample diluted by 1 volume of 8M guanidine hydrochloride. Aggregation was measured by the difference in absorbance determined at 400 nm for the two samples. Non-aggregated samples gave absorbance values of 0 to 0.1 Absorbance Unit(A), Values above 0.3 were considered to be aggregated. Utilizing this assay the turbidity of this modified insulin dissolved in PBS was 0.08 A. In contrast unmodified porcine sodium insulin dissolved in distilled water has an absorbance of 0.51 A when treated according to the above procedure.

| Substance | Bioactivity as compared to unmodified insulin (hypoglycemic potency) [1] [%] | Turbidity (difference in absorbance at 400 nm) ([2]; dissolved in PBS, passed 50 times through a 26G needle) [A] | Turbidity (difference in absorbance at 400 nm) ([2]; dissolved in distilled water, treated according to the same procedure) [A] |
| --- | --- | --- | --- |
| Example 1: porcine sodium insulin sulphated with sulfuric acid and N,N' dicyclohexyl carbodiimide in DMF; mixture of sulphated isomers | 62 | 0.08 |  |
| Example 4: porcine sodium insulin phosphorylated with concentrated phosphoric acid and DCC in DMF | 85 |  |  |
| unmodified porcine sodium insulin: unmodified porcine sodium insulin, starting material and comparator [reference compound] |  |  | 0.51 |

Reference: patent publication US4705845A, “Process for sulphation and phosphorylation of proteins and peptides” (Rockefeller University, priority 1986, dated 1987)
